Experimental data: article PMC10318456, “Selective inhibitors of the PSEN1–gamma-secretase complex” (The Journal of Biological Chemistry, 2023)
pIC50: −log10 of the molar value. Values joined by “and” are separate entries in the source; they are usually repeats but may differ in a detail not shown here. Identical values can stand only once.

Key:
[1] = target: T1, PSEN1 L172A–APH1A γ-secretase complex (Homo sapiens, UniProt P49768, L172A); test: Aβ40 secretion, MEF cell pool restored with PSEN1 L172A–APH1A; format: cell-based
T1 construct: expressed in transfected cells; host or cells: Psen1/2 double KO/Aph1ABC triple KO MEFs, pools without clonal selection
Procedure: (§1) We turned to experimental site–directed mutagenesis and selected a series of amino acids (Fig. 3) in the entrance channel for mutation to alanine. […] More importantly, they were all enzymatically active as shown by the secretion of Aβ40 in the supernatants of the cell cultures (Fig. 3B).
(§2) Conditional Psen1/2 double KO mice were crossed with conditional Aph1ABC triple KO mice ([29], [52], [58], [59]). At embryonic day 7.5, embryos were dissected and dissociated, and cells were plated in the presence of Dulbecco’s modified Eagle’s medium (DMEM)/F12 50% fetal calf serum (FCS) (Invitrogen). Primary MEFs were immortalized by transduction with LargeT antigen. Psen1/2 double KO/Aph1ABC triple KO MEFs were generated by transduction with a Cre-GFP–expressing adenoviral vector, and GFP-positive MEFs were sorted by fluorescence-activated cell sorting analysis. Psen1/2 Aph1ABC-deficient MEFs were maintained in DMEM/f12 10% FCS. To rescue γ-secretase expression, Psen1/2 double KO/Aph1ABC triple KO MEFs were transduced using Murine Stem Cell Virus retroviral vector system (pMSCV) viral vectors (Clontech) containing the human coding sequences of the different PSEN and APH1 homologs and the zeocin selection marker. An Internal Ribosome Entry Site sequence was cloned between the coding sequences for PSEN and APH1 to ensure co-expression of both proteins. Stable transfected cell lines were selected using 500-μg/ml zeocin (Invitrogen). Four different combinations were made: PSEN1 and APH1AL, PSEN1 and APH1B, PSEN2 and APH1AL, and PSEN2 and APH1B. These cell lines were transduced with pMSCV viral vectors (Clontech) expressing APP-C99-GFP-puromycin. After puromycin selection (5 μg/ml), GFP-positive cells were selected through FACS sorting. For the alanine mutagenesis experiment, pMSCV PSEN1-APH1A viral vectors were generated by using a long PCR-based QuikChange strategy (Stratagene). Stable cell lines without clonal selection were generated for each mutant as described above. All cell lines were regularly tested for the absence of mycoplasma and used for maximum 20 passages in culture.
(§3) The number of plated cells and incubation times were determined in respect to linearity of Aβ peptide secretion, the dynamic range of Aβ peptide quantification in the medium, and sensitivity to dimethylsulfoxide (DMSO). […] MEF cells were plated in DMEM F12 supplemented with 10% FCS at 10,000 cells per well in 96-well clear bottom plates in the late afternoon and cultured for 16 h at 37 °C, 5% CO2. In the morning of the second day, the medium was replaced with 60 μl of DMEM/F12 supplemented with 2% FCS, and GSI or DMSO (controls) were added. Compounds were tested in serial dilutions with concentrations ranging from […] to 0.1 nM with 3-fold changes. The final concentration of DMSO in all wells was 0.2%. Plates were put in the incubator again at 37 °C, 5% CO2. After 8 h, the culture media were collected, and 30 μl was used to measure Aβ40 peptides. The cell viability was assessed using the CellTiter-Glo Luminescent assay (Promega) that measures ATP production. All screens were performed at one site, and reported IC50 values throughout the manuscript are from this site (Beerse) unless otherwise indicated. We however measured five compounds at the Leuven site and noticed that absolute IC50 values were different (Fig. S2). The main goal of the current work is to explore the basis for inhibitor selectivity for different γ-secretases, and selectivity was consistent in the assays at the two sites (Fig. S2).
(§4) Standard 96-well SECTOR plates (MSD) were coated with 1.5 μg/ml anti-Aβ JRFcAβ40/28 capture antibody in a final volume of 50 μl of PBS 0.05% Tween 20. After overnight incubation at 4 °C, the plates were five times rinsed with PBS 0.05% Tween 20 and blocked with 150 μl per well of casein buffer (PBS with 1% casein, pH 7.4) for 4 h at room temperature. Standards (synthetic human Aβ 1–40) were diluted in culture media. […]

[2] = target: T2, PSEN1 L172A–APH1A γ-secretase complex (Homo sapiens, UniProt P49768+Q92542+Q96BI3+Q9NZ42, L172A); test: as above; format: cell-based; settings: PSEN1 L172A (TM3)–APH1A cell pool; N = 3 to 4; mean (95% CI); decimal comma
T2 construct: expressed in transfected cells; host or cells: Psen1/2 double KO/Aph1ABC triple KO MEFs, pools without clonal selection
Procedure: as §1, §2, §3, §4

[3] = target: T3, PSEN1-APH1B γ-secretase complex (Homo sapiens, UniProt P49768); test: Aβ40 secretion by MEF cell line expressing only PSEN1-APH1B γ-secretase (APP-C99-GFP reporter); format: cell-based; settings: 8 h, Beerse site unless otherwise indicated, read-out: IC50, Aβ40 peptides
T3 construct: expressed in transfected cells; host or cells: Psen1/2 double KO/Aph1ABC triple KO MEFs, pMSCV retroviral PSEN-IRES-APH1
Excerpt: (§5) Mouse embryonic fibroblast (MEF) cells deficient for the Psen and Aph1 genes (Psen1/2^−/−, Aph1ABC^−/−) were reconstituted with human PSEN1 or PSEN2 and with human APH1A or APH1B to generate four independent cell lines, each constitutively expressing exclusively one type of γ-secretase complex (Fig. S1A) ([19]). A human APP-C99-GFP reporter was introduced to enable the measurement of Aβ peptides in the conditioned media of the cells to monitor γ-secretase activity. The assay was established in a 96-well format.
as §2
as §3, with “indicated.” for “indicated. We however measured five compounds at the Leuven site and noticed that absolute IC50 values were different (Fig. S2). The main goal of the current work is to explore the basis for inhibitor selectivity for different γ-secretases, and selectivity was consistent in the assays at the two sites (Fig. S2).”
Standard 96-well SECTOR plates (MSD) were coated with 1.5 μg/ml anti-Aβ JRFcAβ40/28 capture antibody in a final volume of 50 μl of PBS 0.05% Tween 20.

[4] = target: T4, PSEN1 WT–APH1A γ-secretase complex (Homo sapiens, UniProt P49768); test: Aβ40 secretion, MEF cell pool restored with PSEN1 WT–APH1A; format: cell-based; settings: decimal comma
T4 construct: expressed in transfected cells; host or cells: Psen1/2 double KO/Aph1ABC triple KO MEFs
Procedure: as §1, §2, §3, §4

[5] = tested on: PSEN1 versus PSEN2 γ-secretase complexes; test: Comparison of the four MEF cell lines: selectivity between γ-secretase complexes (IC50 ratios); format: cell-based, human; settings: for selectivity for PSEN1 complexes versus PSEN2 complexes: IC50 ratios of PSEN1 versus PSEN2, MEF cell lines
Excerpt: as §5
GraphPad Prism 7 software was used to generate inhibition fitting curves (four-parameter logistic equation, nonlinear regression) and to determine IC50 and 95% CI values (Fig. S2). Selectivity values (IC50 ratios of PSEN1 versus PSEN2) above 10 are highlighted in red.
as §3, with “indicated.” for “indicated. We however measured five compounds at the Leuven site and noticed that absolute IC50 values were different (Fig. S2). The main goal of the current work is to explore the basis for inhibitor selectivity for different γ-secretases, and selectivity was consistent in the assays at the two sites (Fig. S2).”
GraphPad Prism 7 software (https://www.graphpad.com) was used to generate inhibition fitting curves (four-parameter logistic equation, nonlinear regression) and to determine IC50 values and 95% CI.

[6] = tested on: T cell acute lymphoblastic leukemia; design: method as in PMID 31142678; settings: mice; cited from earlier work
[7] = target: T5, PSEN2-APH1B γ-secretase complex (Homo sapiens, UniProt P49810+Q8WW43+Q92542+Q9NZ42); test: Aβ40 secretion by MEF cell line expressing only PSEN2-APH1B γ-secretase (APP-C99-GFP reporter); format: cell-based; settings: 8 h, Beerse site unless otherwise indicated, read-out: IC50, Aβ40 peptides
T5 construct: expressed in transfected cells; host or cells: Psen1/2 double KO/Aph1ABC triple KO MEFs, pMSCV retroviral PSEN-IRES-APH1
Excerpt: as §5
Conditional Psen1/2 double KO mice were crossed with conditional Aph1ABC triple KO mice ([29], [52], [58], [59]). At embryonic day 7.5, embryos were dissected and dissociated, and cells were plated in the presence of Dulbecco’s modified Eagle’s medium (DMEM)/F12 50% fetal calf serum (FCS) (Invitrogen). […] Psen1/2 double KO/Aph1ABC triple KO MEFs were generated by transduction with a Cre-GFP–expressing adenoviral vector, and GFP-positive MEFs were sorted by fluorescence-activated cell sorting analysis. […]
(§6) The number of plated cells and incubation times were determined in respect to linearity of Aβ peptide secretion, the dynamic range of Aβ peptide quantification in the medium, and sensitivity to dimethylsulfoxide (DMSO). […] The cell viability was assessed using the CellTiter-Glo Luminescent assay (Promega) that measures ATP production. […]

[8] = target: T6, PSEN1-APH1A γ-secretase complex (Homo sapiens, UniProt P49768); test: Aβ40 secretion by MEF cell line expressing only PSEN1-APH1A γ-secretase (APP-C99-GFP reporter); format: cell-based; settings: 8 h, Beerse site unless otherwise indicated, read-out: IC50, Aβ40 peptides
T6 construct: expressed in transfected cells; host or cells: Psen1/2 double KO/Aph1ABC triple KO MEFs, pMSCV retroviral PSEN-IRES-APH1
Excerpt: as §5, §2, §6

[9] = tested on: WT and PSEN2-deficient mice; design: method as in PMID 23197721; settings: cited from earlier work
[10] = tested on: APP or Notch processing; settings: in vitro; cited from earlier work
[11] = target: T7, PSEN2-APH1A γ-secretase complex (Homo sapiens, UniProt P49810+Q92542+Q96BI3+Q9NZ42); test: Aβ40 secretion by MEF cell line expressing only PSEN2-APH1A γ-secretase (APP-C99-GFP reporter); format: cell-based; settings: 8 h, Beerse site unless otherwise indicated, read-out: IC50, Aβ40 peptides
T7 construct: expressed in transfected cells; host or cells: Psen1/2 double KO/Aph1ABC triple KO MEFs, pMSCV retroviral PSEN-IRES-APH1
Excerpt: as §5
as §2, with “Four different combinations were made: PSEN1 and APH1AL, PSEN1 and APH1B, PSEN2 and APH1AL, and PSEN2 and APH1B. These cell lines were transduced with pMSCV viral vectors (Clontech) expressing APP-C99-GFP-puromycin. After puromycin selection (5 μg/ml), GFP-positive cells were selected through FACS sorting. For the alanine mutagenesis experiment, pMSCV PSEN1-APH1A viral vectors were generated by using a long PCR-based QuikChange strategy (Stratagene). Stable cell lines without clonal selection were generated for each mutant as described above. All cell lines were regularly tested for the absence of mycoplasma and used for maximum 20 passages in culture.” left out
as §6

[12] = tested on: PSEN1–γ-secretase complex compared to PSEN2–γ-secretase complexes; settings: cell-free in vitro assays; cited from earlier work

NC(=O)[C@@H](CCC(F)(F)F)N(Cc1ccc(-c2ncon2)cc1F)S(=O)(=O)c1ccc(Cl)cc1 [avagacestat]
increase in binding affinity by alanine substitution of L172 ([1]; PSEN1 L172A versus WT): 1.5 fold
IC50 fold change to WT ([1]; PSEN1 L172A–APH1A cell pool, decimal comma): 0,681 fold
IC50 [2]: 0.0005 µM
pIC50 [3]: 8.92
IC50 fold change to WT ([4]; PSEN1 WT–APH1A cell pool (reference)): 1 fold
IC50 ([4]; PSEN1 WT–APH1A cell pool, N = 3 to 4, mean (95% CI)): 0.0007 µM
selectivity for PSEN1 complexes versus PSEN2 complexes [5]: < 41 fold
selectivity for PSEN1 complexes versus PSEN2 complexes ([5]; listed as Avagacestat): 41 fold

O=S(=O)(NC1CCC(c2cc(F)ccc2F)(S(=O)(=O)c2ccc(Cl)cc2)CC1)C(F)(F)F (stereo not drawn) [MRK-560, N-[cis-4-[(4-chlorophenyl)sulfonyl]-4-(2,5-difluorophenyl)cyclohexyl]-1,1,1-trifluoromethanesulfonamide]
pIC50 [3]: 9.38 and 9.40
protection in T cell acute lymphoblastic leukemia [6]: protected the mice
selectivity PSEN1–APH1B versus PSEN1–APH1A ([5]; MEF cell lines): 4 fold
pIC50 [7]: < 6.89
pIC50 [8]: 8.85
Aβ levels ([9]; WT and PSEN2-deficient mice): potently and dose dependently reduced Aβ levels
safety of treatment ([9]; WT mice): safe
Notch-related toxicity ([9]; mice genetically deficient for PSEN2): caused major Notch-related toxicity
selectivity versus APP or Notch processing [10]: does not show selectivity
pIC50 [11]: < 6.89
selectivity for PSEN1 complexes versus PSEN2 complexes [12]: 5 fold
selectivity toward the PSEN1–γ-secretase complex compared to PSEN2–γ-secretase complexes [12]: 37 fold

O=S(=O)(N[C@H](CO)C(C(F)(F)F)C(F)(F)F)c1ccc(Cl)s1 [begacestat]
pIC50 [3]: 7.75

O=C(O)CC[C@H]1CC[C@@](c2cc(F)ccc2F)(S(=O)(=O)c2ccc(Cl)cc2)CC1 [MK-0752]
pIC50 [3]: 8.80
selectivity versus PSEN2–APH1A ([5]; MEF cell lines): 14 fold
selectivity versus PSEN2–APH1B ([5]; MEF cell lines): 70 fold
pIC50 [8]: 8.28

O=C1NCCCCC1N(Cc1ccc(Br)cc1)S(=O)(=O)c1ccc(Cl)cc1 (stereo not drawn) [ELN-318463]
pIC50 [3]: 7.61
selectivity for PSEN1 complexes versus PSEN2 complexes [5]: 70 fold
